According to ChEMBL document CHEMBL3632565, “The use of porcupine inhibitors to target Wnt-driven cancers” (Bioorg Med Chem Lett, 2015):
Blank lines part the entries; values can stand above or below the compound they belong to.

Columns and labels:
[1] = target: T1, Protein-serine O-palmitoleoyltransferase porcupine (Homo sapiens, UniProt Q9H237); test: Inhibition of porcupine activity (unknown origin) expressed in human HT1080 cells assessed as suppression of Wnt3A-mediated super top flash activity by STF luciferase assay; type: cell-based, HT-1080
T1 sequence (Q9H237 whole entry): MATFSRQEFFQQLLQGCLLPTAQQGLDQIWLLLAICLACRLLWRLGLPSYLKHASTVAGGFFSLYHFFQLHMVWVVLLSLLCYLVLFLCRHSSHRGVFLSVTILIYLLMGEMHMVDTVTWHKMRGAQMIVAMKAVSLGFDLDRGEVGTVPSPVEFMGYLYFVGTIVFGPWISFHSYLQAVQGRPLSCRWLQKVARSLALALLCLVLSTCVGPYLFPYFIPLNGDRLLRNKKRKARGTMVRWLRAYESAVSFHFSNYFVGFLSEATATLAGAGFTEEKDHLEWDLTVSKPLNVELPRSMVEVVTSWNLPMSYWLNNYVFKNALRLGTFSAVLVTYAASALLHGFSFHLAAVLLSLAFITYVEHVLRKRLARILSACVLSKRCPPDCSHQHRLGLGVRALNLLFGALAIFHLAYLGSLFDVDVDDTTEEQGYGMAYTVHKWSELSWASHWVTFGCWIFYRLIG

[2] = target: T2, Protein-serine O-palmitoleoyltransferase porcupine (Homo sapiens) (UniProt Q9H237); test: (§1) Inhibition of porcupine in human HEK293 cells assessed as reduction in Wnt secretion by measuring suppression of beta-catenin reporter activity after 24 hrs by STF reporter assay; type: cell-based
T2 sequence (whole entry): T1 sequence (Q9H237 whole entry)

[3] = Inhibition of xenopus porcupine expressed in human HT1080 cells assessed as reduction in beta catenin reporter activity using firefly luciferase substrate STF reporter assay; type: cell-based; settings: ht-1080
[4] = (§2) Antitumor activity against human HPAF2 cells xenografted in Balb/c mouse assessed as tumor growth inhibition at 100 mg/kg; type: functional; settings: HPAF-II, read-out: TGI
HPAF-II = test: as §2; type: functional
[5] = target: T3, Protein-serine O-palmitoleoyltransferase porcupine (Mus musculus, UniProt Q9JJJ7); test: Inhibition of mouse porcupine expressed in human HT1080 cells assessed as reduction in beta catenin reporter activity using firefly luciferase substrate STF reporter assay; type: cell-based, HT-1080
T3 sequence (Q9JJJ7 whole entry): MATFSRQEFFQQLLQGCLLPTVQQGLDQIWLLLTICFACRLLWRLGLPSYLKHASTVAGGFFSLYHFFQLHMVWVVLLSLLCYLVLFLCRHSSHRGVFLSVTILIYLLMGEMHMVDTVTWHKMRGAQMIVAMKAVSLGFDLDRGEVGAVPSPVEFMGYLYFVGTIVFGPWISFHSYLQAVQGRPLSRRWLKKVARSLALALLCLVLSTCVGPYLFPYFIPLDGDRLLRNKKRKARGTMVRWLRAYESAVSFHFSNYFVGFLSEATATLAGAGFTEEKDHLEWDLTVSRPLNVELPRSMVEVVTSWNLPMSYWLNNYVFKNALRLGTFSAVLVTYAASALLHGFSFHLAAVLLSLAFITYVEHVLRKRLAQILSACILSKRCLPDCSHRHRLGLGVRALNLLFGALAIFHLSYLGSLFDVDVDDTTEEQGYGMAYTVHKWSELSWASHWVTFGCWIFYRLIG

[6] = target: T2, Protein-serine O-palmitoleoyltransferase porcupine (Homo sapiens); test: Binding affinity to porcupine (unknown origin)
[7] = target: T1, Protein-serine O-palmitoleoyltransferase porcupine; test: Inhibition of porcupine in human HEK293 cells by STF reporter assay; type: cell-based
[8] = target: T1, Protein-serine O-palmitoleoyltransferase porcupine; test: as §1; type: cell-based

IC50 [1]: 0.074 nM
SMILES: Cc1cc(-c2ccc(CC(=O)Nc3ccc(-c4cccnc4)cc3)cc2)ccn1

IC50 [1]: 60 nM
SMILES: COc1ccc(-n2nc(C(=O)NCC(=O)Nc3nc4ccc(OC)cc4s3)c3ccccc3c2=O)cc1

inhibition [2]: Dose-dependent effect
SMILES: C[C@@H](C(=O)Nc1ccc(-c2ccsc2)cc1)n1cnc2c1c(=O)n(C)c(=O)n2C

IC50 [3]: 70 nM
IC50 [5]: 18.1 nM
inhibition [2]: Dose-dependent effect
SMILES: Cn1c(=O)c2c(ncn2CC(=O)Nc2ccc(-c3ccccc3)nn2)n(C)c1=O [ETC-159]
inhibition in vivo at 100 mg/kg [4]: 90%
TGI (HPAF-II): Dose-dependent effect

Activity [6]: > 25 µM
SMILES: COc1ccc2nc(NC(=O)CNC(=O)c3ccc(=O)n(-c4ccccc4)c3)sc2c1

IC50 [7]: 5 nM
SMILES: Cn1c(=O)c2c(nc3n2[C@H](CC(=O)Nc2ccc(-c4ccccc4)nn2)CC3)n(C)c1=O

IC50 [8]: 5.4 µM
SMILES: C[C@H](C(=O)Nc1ccc(-c2ccsc2)cc1)n1cnc2c1c(=O)n(C)c(=O)n2C

Activity [6]: > 25 µM
SMILES: O=C(CNC(=O)c1nn(-c2ccccc2)c(=O)c2ccccc12)Nc1nccs1
